Results on eight compounds are retold here after patent US10981932B2, “Macrocyclic indole derivatives” (Bayer Aktiengesellschaft, priority 2016, dated 2021).

Counter-ions that a name gives are not always drawn. Like-named read-outs stand apart in the source and are kept apart here.

One assay concerns A2780. The assay is described as follows: Anti-proliferative effect (CellTiter-Glo, 72 h), A2780. It is filed as cell-based. As to conditions: Homo sapiens, A2780, 72 h, A2780 cells, median, read-out: IC50 antiproliferation assay A2780 [M] (median). The protocol: (§1) Assessment of the Anti-Proliferative Effect of Compounds in Different Cell Lines
(§2) The impact of compounds on the proliferation of different cell lines was assessed using the CellTiter-Glo® Luminescent Cell Viability reagent from Promega (G7573). Of note, SUDHL10 and SUDHL5 (DLBCL), NCI-H929 (Multiple Myeloma), A2780 (ovarian carcinoma) as well as MV-4-11(AML) cells are sensitive to MCL-1 inhibition.
(§3) In parallel, cells were plated in a reference (day 0) plate for time zero determination.
(§4) Rim wells were excluded. The cells were incubated for 72 h hours in a humidified incubator at 37° C. The day 0 plate was measured by adding 30 μl/well of CTG solution (CellTiter-Glo® Luminescent Cell Viability reagent, Promega G7573) to time zero wells in the reference plate followed by a 10 minutes incubation and luminescence reading at 0.1 ms, using the PHERAstar FS microplate reader (BMG Labtech).
(§5) After 72 h incubation, the treated plates were measured in the same way as the day 0 plate mentioned above.
On the technique in general: ATP-based viability assays read luminescence as a measure of living cells.

In assay [1] the test system is SUDHL10. The assay is described as follows: Induction of cytotoxicity (CellTiter-Glo, 5 h), SUDHL10. As to conditions: Homo sapiens, SU-DHL10, 5 h.
Description: Therefore, cytotoxicity assays were run in parallel in SUDHL5 and SUDHL10 cells.
The different cell lines were plated in culture medium (RPMI 1640 [GIBCO #22400-089]supplemented with 10% Fetal Bovine Serum) at a density of 3.300 cells in 30 μl/well in a sterile, solid black, flat bottom, polystyrene, TC-treated 384-well microplate (Corning #3571) using Multidrop Combi Reagent Dispenser. As a control, medium without cells was also added to the plate. Cells were incubated in a humidified incubator at 37° C. overnight. On the next day, the cells were treated with compounds (stock solution, 10 mM in DMSO) using the HP D300 Digital Dispenser in a concentration range of 3.3×10e-5 M (33 μM) to 5×10e-9 M (5 nM) in a single-dot curve with at least 16 dilutions and a DMSO concentration of 0.33%. Rim wells were excluded. The cells were incubated for 5 h hours in a humidified incubator at 37° C. After this incubation, 30 μl of CellTiter-Glo@ Luminescent Cell Viability reagent (Promega, G7573) was added to each well using the Multidrop Combi Reagent Dispenser, followed by 15 min incubation on a shaker at room temperature. Finally, luminescence was read at 0.1 ms, with a gain of 3000 using the PHERAstar FS microplate reader (BMG Labtech).
The Bella DRC Master Sheet was used to calculate IC50s, with fixed CI=0 and C0=1.
The target of the next assay is MCL-1 (Homo sapiens, UniProt Q07820). The assay is described as follows: Protein-protein interaction assay MCL-1/Noxa BH3 peptide (MCL-1 assay), TR-FRET. The format is binding. The following applies: MBP-MCL-1 / Noxa BH3-derived peptide, median. The protocol: Protein-Protein Interaction Assay: MCL-1/Noxa BH3 Peptide (MCL-1 Assay) […]
In the assay 11 different concentrations of each compound (0.1 nM, 0.33 nM, 1.1 nM, 3.8 nM, 13 nM, 44 nM, 0.15 μM, 0.51 μM, 1.7 μM, 5.9 μM and 20 μM) were typically measured as duplicates in the same microtiter plate. For that, 100-fold concentrated DMSO solutions were prepared by serial dilutions (1:3.4) of a 2 mM stock solution in a clear, 384-well microtiter plate (Greiner Bio-One, Frickenhausen, Germany). From there, 50 ni were transferred in a dark test plate (Greiner Bio-One, Frickenhausen, Germany). The assay was initiated by addition of 2 μl of a 2.5-fold concentrated MBP-MCL-1 solution (usually for a 1 nM end concentration in 5 μl reaction volume) in aqueous assay buffer [50 mM Tris/HCl pH 7, 100 mM sodium chloride (NaCl), 50 mM potassium fluoride (KF), 0.005% Tween-20, 2 mM DTT, 0.1% bovine gamma globulin (BGG)] to the compounds in the assay plate. This was followed by a 10-minute incubation step at 22° C. for pre-equilibration of the putative complex between MBP-MCL-1 and the compounds. After that.
The mixture was incubated in the dark for one hour at 22° C. and then overnight at 4° C. The formation of MCL-1/Noxa complexes was determined by measuring the resonance energy transfer of the anti-MBP- Eu-cryptate antibody to the streptavidin-XL665 present in the reaction. For that purpose, the fluorescence emission at 620 nm and 665 nm after excitation at 330-350 nm was measured in a TR-FRET measuring instrument, for instance a Rubystar or a Pherastar (both from BMG Lab Technologies, Offenburg, Germany) or a Viewlux (Perkin-Elmer). The ratio of the emission at 665 nm and at 622 nm was used as indicator of the amount of MCL-1/NOXA complexes present.
The resulting data (ratio) were normalized, taking 0% inhibition as the mean value of control measurements (usually 32 data points) where all reagents were included. In this case 50 nl DMSO were used instead of compounds. A 100% inhibition corresponded to the mean value of control measurements (usually 32 data points) where all reagents except MCL-1 were included. IC50 values were determined by regression analysis based on a 4 parameter equation (minimum, maximum, IC50, Hill; Y=Max+(Min−Max)/(1+(X/IC50)^Hill) using the Screener Software (Genedata).
Background: In TR-FRET formats the signal depends on donor and acceptor labels being close together.

Assay [2] relates to SUDHL5. Nature of the assay: Anti-proliferative effect (CellTiter-Glo, 72 h), SUDHL5. The format is cell-based. As to conditions: Homo sapiens, SU-DHL-5, 72 h, SUDHL5 cells, antiproliferation, median, read-out: Antiproli SUDHL5 [M] (median). As for the experimental part: as §1, §2, §3, §4, §5
In assay [3] the test system is SUDHL5. Nature of the assay: Induction of cytotoxicity (CellTiter-Glo, 5 h), SUDHL5. As to conditions: Homo sapiens, SU-DHL-5, 5 h.
Assay [4] deals with SUDHL10. The assay is described as follows: Induction of caspase-3/7 activity (Caspase-Glo 3/7), SUDHL10. The following applies: Homo sapiens, SU-DHL10, 3 h, caspase-3/7 induction, SUDHL10 cells, 3 h treatment; median. The format is cell-based. As for the experimental part:
(§6) Induction of Caspase-317 Activity Upon Treatment of Cells with Selected Compounds
(§7) The BH3-domain of MCL-1 sequesters pro-apoptotic proteins, thereby inhibiting apoptosis. In contrast, MCL-1 inhibitors are expected to antagonize this effect leading to an increase in apoptosis, which can be determined by measuring the activity of caspase-3/7.
(§8) The activity of caspase-3/7 was determined in DLBCL (Diffuse large B-cell lymphoma) cell lines (SUDHL5 and SUDHL10) upon treatment with different compounds, using the Caspase-Glo® 3/7 reagent from Promega (G8092).
(§9) Rim wells were excluded. The cells were incubated for 3 h hours in a humidified incubator at 37° C.
(§10) For the evaluation of the results, the background measured with “medium-only” was subtracted from all other values. […] The Bella DRC Master Sheet was used to calculate EC50s, with fixed C0=1 and CI=plateaulmax induction for the reference compound.

Assay [5] deals with SUDHL5. Nature of the assay: Induction of caspase-3/7 activity (Caspase-Glo 3/7), SUDHL5. It is filed as cell-based. The following applies: Homo sapiens, SU-DHL-5, 3 h, caspase-3/7 induction, SUDHL5 cells, 3 h treatment; median. As for the experimental part: as §6, §7, §8, §9, §10
Where [6] appears, read: read-out: Cytotox SUDHL10 [M] (median), SUDHL10 cells, cytotoxicity induction, CellTiter-Glo, 5 h incubation, median.
The mark [7] stands for this setting: read-out: Cytotox SUDHL5 [M] (median), SUDHL5 cells, cytotoxicity induction, CellTiter-Glo, 5 h incubation, median.
Where [8] appears, read: read-out: Cytotox SUDHL10 [M] (median), SUDHL10 cells, cytotoxicity induction, CellTiter-Glo, 5 h, median.
Where [9] appears, read: read-out: Cytotox SUDHL5 [M] (median), SUDHL5 cells, cytotoxicity induction, CellTiter-Glo, 5 h, median.

Sequence of MCL-1 (Q07820 whole entry): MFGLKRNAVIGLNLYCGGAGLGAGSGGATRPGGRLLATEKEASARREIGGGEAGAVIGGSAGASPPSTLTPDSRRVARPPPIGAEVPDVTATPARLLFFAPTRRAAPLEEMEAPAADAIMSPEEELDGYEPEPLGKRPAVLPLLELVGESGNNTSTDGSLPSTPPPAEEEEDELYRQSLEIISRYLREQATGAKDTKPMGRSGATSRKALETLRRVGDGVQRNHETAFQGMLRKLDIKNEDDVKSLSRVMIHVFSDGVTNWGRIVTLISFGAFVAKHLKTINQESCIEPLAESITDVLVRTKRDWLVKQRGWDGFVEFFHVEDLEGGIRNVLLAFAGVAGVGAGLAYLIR

For the compound `Cc1nn(CC(F)(F)F)c2c1-c1cccc3c(CCCOc4cccc5ccccc45)c(C(=O)O)n(c13)CCCCOC2` (racemic) [Example 109, (rac)-3-methyl-7-[3-(naphthalen-1-yloxy)propyl]-1-(2,2,2-trifluoroethyl)-1,10,11,12,13,15-hexahydropyrazolo[4′,3′:9,10][1,6]oxazacycloundecino[8,7,6-hi]indole-8-carboxylic acid], the IC50 with A2780 is 1.9e-05 M; with SUDHL10 [1] (setting [6]), more than 3.3e-05 M; against MCL-1, 11.1 nM; in the assay on SUDHL5 [2] (72 h incubation), 1.56e-05 M; with SUDHL5 [3] (setting [7]), more than 3.3e-05 M. The concentration for a half-maximal effect (EC50) in the assay with SUDHL10 [4] and with SUDHL5 [5] was more than 33 µM each time.

With `Cn1nc(CCN2CCOCC2)c2c1COCCCCn1c(C(=O)O)c(CCCOc3cccc4ccccc34)c3cccc-2c31` (racemic) [Example 150, (rac)-1-methyl-3-[2-(morpholin-4-yl)ethyl]-7-[3-(naphthalen-1-yloxy)propyl]-1,10,11,12,13,15-hexahydropyrazolo[4′,3′:9,10][1,6]oxazacycloundecino[8,7,6-hi]indole-8-carboxylic Acid], the IC50 was more than 3.3e-05 M in the assay on A2780; more than 3.3e-05 M with SUDHL10 [1] (setting [6]); 7.61 nM at MCL-1; 2.11e-05 M in the assay with SUDHL5 [2] (72 h incubation); 2.69e-05 M in the assay with SUDHL5 [3] (setting [7]). Also, the EC50 – broadly, the concentration at which the effect is half-maximal – in the assay on SUDHL10 [4] was 28 µM; in the assay on SUDHL5 [5], more than 33 µM.

As for `COCc1nn(C)c2c1-c1cccc3c(CCCOc4cccc5ccccc45)c(C(=O)O)n(c13)CCCCCOC2` (racemic) [Example 177, (rac)-3-(methoxymethyl)-1-methyl-7-[3-(naphthalen-1-yloxy)propyl]-1,11,12,13,14,16-hexahydro-10H-pyrazolo[3′,4′:3,4][1,7]oxazacyclododecino[5,6,7-hi]indole-8-carboxylic Acid], the IC50 was more than 3.3e-05 M in the assay with A2780; more than 3.3e-05 M in the assay with SUDHL10 [1] (setting [6]); 10.7 nM against MCL-1; more than 3.3e-05 M in the assay on SUDHL5 [2] (72 h incubation); 2.14e-05 M in the assay on SUDHL5 [3] (setting [7]). Moreover, the EC50 in the assay with SUDHL10 [4] is more than 33 µM; in the assay with SUDHL5 [5], 23.3 µM.

Turning to `Cn1nc(C(F)(F)F)c2c1COCCCCn1c(C(=O)O)c(CCCOc3cccc4ccccc34)c3cccc-2c31` (racemic) [Example 216, (rac)-1-methyl-7-[3-(naphthalen-1-yloxy)propyl]-3-(trifluoromethyl)-1,10,11,12,13,15-hexahydropyrazolo[4′,3′:9,10][1,6]oxazacycloundecino[8,7,6-hi]indole-8-carboxylic Acid], the IC50 in the assay on A2780 came out at 2.02e-05 M; in the assay on SUDHL10 [1] (setting [6]), 3.11e-05 M; on MCL-1, 5.8 nM; in the assay with SUDHL5 [2] (72 h incubation), 1.27e-05 M; in the assay on SUDHL5 [3] (setting [7]), 1.04e-05 M. For the same compound, the EC50 in the assay with SUDHL10 [4] was 28.7 µM; in the assay on SUDHL5 [5] it was 10 µM.

As to `Cc1c2c(nn1CCN(C)C)COCCCCn1c(C(=O)O)c(CCCOc3cccc4ccccc34)c3cccc-2c31` (racemic) [Example 243, (rac)-2-[2-(dimethylamino)ethyl]-3-methy-7-[3-(naphthalen-1-yloxy)propyl]-2,10,11,12,13,15-hexahydropyrazolo[4′,3′:9,10][1,6]oxazacycloundecino[8,7,6-hi]indole-8-carboxylic Acid Trifluoroacetic Acid Salt], the IC50 in the assay with A2780 worked out at 1.43e-05 M; in the assay with SUDHL10 [1] (setting [6]) it was 1.46e-05 M; on MCL-1 it was 7.78 nM; in the assay on SUDHL5 [2] (72 h incubation), 1.11e-05 M; with SUDHL5 [3] (setting [7]), 6.44e-06 M. Also, the EC50 in the assay with SUDHL10 [4] was 16.5 µM; with SUDHL5 [5], 7.09 µM.

For the compound `CCc1nn(C)c2c1-c1c(C)ccc3c(C(C)CCOc4cccc5ccccc45)c(C(=O)O)n(c13)CCCCOC2` (racemic) [Example 271, 3-ethyl-1,4-dimethyl-7-[4-(naphthalen-1-yloxy)butan-2-yl]-1,10,11,12,13,15-hexahydropyrazolo[4′,3′:9,10][1,6]oxazacycloundecino[8,7,6-hi]indole-8-carboxylic Acid], the IC50 with A2780 is 1.83e-05 M; in the assay on SUDHL10 [1] (setting [6]), more than 3.3e-05 M; at MCL-1 it was 30.6 nM; with SUDHL5 [2] (72 h incubation), 1.27e-05 M; in the assay on SUDHL5 [3] (setting [7]), 3.28e-05 M. Besides, the EC50 with SUDHL10 [4] and in the assay with SUDHL5 [5] was more than 33 µM each time.

Consider `CN1CCN(Cc2c3c(nn2C)COC/C=C\Cn2c(C(=O)O)c(CCCOc4cccc5ccccc45)c4cccc-3c42)CC1` (racemic) [Example 358, (rac)-(11 Z)-2-methyl-3-[(4-methylpiperazin-1-yl)methyl]-7-[3-(naphthalen-1-yloxy)propyl]-2,10,13,15-tetrahydropyrazolo[4′,3′:9,10][1,6]oxazacycloundecino[8,7,6-hi]indole-8-carboxylic Acid], for which the IC50 with A2780 was 1.2e-05 M; in the assay on SUDHL10 [1] (setting [8]), more than 3.3e-05 M; against MCL-1, 17.3 nM; in the assay with SUDHL5 [2] (72 h) it was 2.06e-05 M; in the assay with SUDHL5 [3] (setting [9]), more than 3.3e-05 M. Besides, the EC50 in the assay on SUDHL10 [4] and in the assay with SUDHL5 [5] was more than 33 µM each time.

On to `Cc1ccc2c(C(C)CCOc3cccc4ccccc34)c(C(=O)O)n3c2c1-c1c(nn(C)c1C)COCCCC3` (racemic) [Example 362, 11,12,13-trimethyl-1-(4-(naphthalen-1-yloxy)butan-2-yl)-4,5,6,7,9,11-hexahydropyrazolo[4′,3′:9,10][1,6]oxaazacycloundecino[8,7,6-hi]indole-2-carboxylic Acid (Mixture of Stereoisomers)], for which the IC50 is 1.41e-05 M in the assay with A2780; more than 3.3e-05 M with SUDHL10 [1] (setting [8]); 18.7 nM against MCL-1; 1.27e-05 M with SUDHL5 [2] (72 h); 2.72e-05 M with SUDHL5 [3] (setting [9]). Further, the concentration for a half-maximal effect (EC50) was more than 33 µM in the assay with SUDHL10 [4] and 26.2 µM in the assay on SUDHL5 [5].
